One data set addresses FAP Mouse Plasma (Mus musculus (Mouse), UniProt P97321). The data set is described as follows: FAP plasma inhibition assay, mouse plasma. The data set is classed as biochemical. The following applies: mouse plasma dilution 1:67, Ala-Pro-AMC 75 μM; n = 1. On the procedure:
This assay was adapted from the method described in Example 53 for detection of FAP target engagement enzyme activity in plasma. Plasma (anticoagulant K2EDTA) was used as the enzyme source: Human plasma (Pooled from AZ Biobank) and Mouse plasma (AZ AST Biobank). 384-Well black fluotrack PS plates (Greiner 781076) were used. 20 μL diluted plasma (Human plasma dilution 1:40, Mouse plasma dilution 1:67) in buffer (PBS, 0.1% BSA) was added to 0.6 μL compounds (in DMSO). Compounds were tested using 10 CR, 3-fold dilution series from 500 nM FAC. Two replicates for each assay point were run on the same plate. A fluorescence blank read was taken before substrate addition. Substrate, Ala-Pro-AMC (ARI-3144) stock solution (20 mM in DMSO) was diluted in buffer (PBS, 0.1% BSA) to 150 μM concentration and 20 μL added giving 75 μM FAC. Plates were incubated for 40 min at rt in the dark. The plates were read on a Beckman Paradigm® reader with excitation 360 nm and emission 465 nm. Data were analyzed in Excel (IDBS XLfit Add-In) using a one site dose response model (4-parameter logistic fit). […] Raw data signals were normalized using 1.5% DMSO in diluted plasma as 0% control and 1.5% DMSO in buffer (no plasma) as 100% inhibitor control.

Data set [1] is described as follows: Metabolic stability in human liver microsomes (HLM). The data set is classed as in vitro ADME. As to the method: Metabolic stability in HLM was measured as described in J Comput Aided Mol Des 2015, 29, 795.
The nature of data set [2]: Caco-2 AB intrinsic permeability. The data set is classed as in vitro ADME. The following applies: human, A to B, read-out: Caco2 AB Intrinsic Papp. As to the method:
(§1) Caco-2 cell permeability was measured as described in Mol/Pharm 2017, 14, 1601.
(In general: Passage across Caco-2 layers is used to estimate intestinal permeability.)

Data set [3] is described as follows: Caco-2 bidirectional (ABBA) permeability. The data set is classed as in vitro ADME. The following applies: human; for Papp A→B: A to B, read-out: Caco2 Bidirectional (ABBA) A to B Papp; for Papp B→A: B to A, read-out: Caco2 Bidirectional (ABBA) B to A Papp; for efflux ratio: read-out: Caco2 Bidirectional (ABBA) Efflux Ratio. As to the method:
as §1

Another data set in a line: Kinetic solubility. The data set is classed as physicochemical. The conditions noted are these: kinetic from dmso stock. On the procedure: Kinetic solubility was measured as described in Comput Aided Mol Des 2015, 29, 795.
Data set [4] has as its target FAP enzyme activity in mouse plasma (Mus musculus (Mouse), UniProt P97321). The data set is described as follows: FAP target engagement enzyme activity in mouse plasma after oral dosing. The following applies: male C57Bl/6 mice, single oral dose 3 or 10 mg/kg; estimated from plasma exposure vs FAP activity, Imax fixed to 1; read-out: In vivo Mouse IC50. On the procedure:
The effect of test compound on FAP enzyme activity in mouse plasma was evaluated in an enzymatic assay using the Fibroblast Activation Protein alpha (FAP) specific fluorogenic substrate dipeptide-Coumarin, Ala-Pro-AMC, (ARI-3144). In this assay, FAP cleaves Ala-Pro-AMC to release free AMC which is measured as a fluorescent signal that correlates with enzyme activity.
Male C57Bl/6 mice (Charles River, Germany), 8 weeks of age, were single housed in a temperature-controlled room with a 12-hour light/dark cycle (06:00-18:00 light). The mice had ad libitum access to water and rodent chow diet (R70, Lactamin, Kimstad, Sweden), and were acclimated for 5 days upon arrival. After acclimation, all mice received a single oral dose of test compound (3 or 10 mg/kg). Blood samples for whole blood compound exposure measurements were taken at 0.25, 0.5, 1, 2, 4, 8 and 24 h post oral dosing. Samples were collected in EDTA capillary tubes (20 μL, K2E, REF 19.447) and were transferred to a 96-deep well plate (NUNC, Thermo Discher Scientific) and stored at −20° C. until further analyses were performed. […]
Recombinant human FAP (PB-17-1837, construct PL-17-0278, cd33-FAP (27-757)-6His, Mw85926 Da) was used as a standard for this assay. […] The plates were read on a Beckman Paradigm reader with excitation 360 nm and emission 465 nm. Fluorescence measurements were performed with kinetic read every 5 minutes for 60 min at room temperature. Data were analyzed in Excel (IDBS XLfit Add-In) using a Linear Regression (y=k*x+m) model to prepare a human recombinant FAP standard curve.
On the day of the assay, plasma was diluted (1:2) to 20 μL volume in buffer (PBS, 0.1% BSA) and 7.5 μL was transferred to the assay plate (384-well black, fluotrack PS, Greiner 781076). […] The plates were read on a Beckman Paradigm reader with excitation 360 nm and emission 465 nm. Fluorescence measurements were performed with kinetic read every 5 minutes for 60 minutes at room temperature. As noted above, FAP cleaves Ala-Pro-AMC to release free AMC which is measured as a fluorescent signal. […]

The term IC50 denotes the concentration that inhibits the measured activity by half. As usually defined, the microsomal CLint is a measure of how fast metabolising enzymes remove a compound, apart from limits set by blood flow. A low value points to greater metabolic stability. As usually defined, the Papp is a coefficient for how fast a substance crosses the barrier. By Papp A→B is commonly meant the apparent permeability from the apical to the basolateral side of a cell layer. The Papp B→A is how fast a substance crosses the layer from the basolateral side. The term solubility denotes the concentration that dissolves in the medium under given conditions.

Structures are written as SMILES. In brackets after ≈: the same amount, converted by molar mass.

Sequence of FAP enzyme activity in mouse plasma (P97321 24-761 limits assumed): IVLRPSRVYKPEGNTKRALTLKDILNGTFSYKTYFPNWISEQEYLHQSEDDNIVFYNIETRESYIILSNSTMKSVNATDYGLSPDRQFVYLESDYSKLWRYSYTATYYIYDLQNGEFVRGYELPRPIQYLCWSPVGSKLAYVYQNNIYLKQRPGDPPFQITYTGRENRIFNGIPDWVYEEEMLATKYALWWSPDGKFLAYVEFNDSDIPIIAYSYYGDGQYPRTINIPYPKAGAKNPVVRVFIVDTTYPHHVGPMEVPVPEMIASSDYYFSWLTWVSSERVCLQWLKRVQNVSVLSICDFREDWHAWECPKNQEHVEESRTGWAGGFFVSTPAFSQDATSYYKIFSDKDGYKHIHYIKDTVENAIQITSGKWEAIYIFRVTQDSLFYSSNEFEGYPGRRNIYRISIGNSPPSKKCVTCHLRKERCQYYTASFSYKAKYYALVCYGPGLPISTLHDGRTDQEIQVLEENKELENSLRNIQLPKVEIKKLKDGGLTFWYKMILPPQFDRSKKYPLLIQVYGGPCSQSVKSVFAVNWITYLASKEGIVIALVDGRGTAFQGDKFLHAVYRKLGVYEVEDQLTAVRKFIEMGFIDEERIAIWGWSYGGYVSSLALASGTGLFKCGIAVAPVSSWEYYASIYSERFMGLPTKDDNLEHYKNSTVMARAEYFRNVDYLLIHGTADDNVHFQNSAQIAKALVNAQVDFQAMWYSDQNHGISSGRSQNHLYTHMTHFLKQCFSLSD
Sequence of FAP Mouse Plasma (P97321 24-761 limits assumed): as above

`Cc1ccc2c(C(=O)NCC(=O)N3[C@H](C#N)C[C@@H]4C[C@@H]43)ccnc2c1` [Example 20, N-(2-((1S,3S,5S)-3-Cyano-2-azabicyclo[3.1.0]hexan-2-yl)-2-oxoethyl)-7-methylquinoline-4-carboxamide]: the IC50 on FAP Mouse Plasma was determined as 0.73 nM. The compound also displayed a microsomal CLint in data set [1] of under 3.2 µL/min/mg. For the same compound, in data set [2], the Papp turned out to be 60 ×10⁻⁶ cm/s. Moreover, in data set [3], the Papp A→B turned out to be 24 ×10⁻⁶ cm/s, the basolateral-to-apical permeability (Papp B→A) was determined as 19 ×10⁻⁶ cm/s and the efflux ratio worked out at 0.8. In “Kinetic solubility”, this compound returned a solubility of over 1000 µM. Moreover, in data set [4], the IC50 is 3 nM.

Regarding `N#C[C@@H]1C[C@@H]2C[C@@H]2N1C(=O)CNC(=O)c1ccnc2cc(C3(C#N)CC3)ccc12` [Example 40, N-(2-((1S,3S,5S)-3-Cyano-2-azabicyclo[3.1.0]hexan-2-yl)-2-oxoethyl)-7-(1-cyanocyclopropyl)quinoline-4-carboxamide], the IC50 against FAP Mouse Plasma was determined as 2.8 nM. In addition, the microsomal CLint in data set [1] was under 3 µL/min/mg. In addition, the Papp in data set [2] came to 9.3 ×10⁻⁶ cm/s. Also, in data set [3], the Papp A→B was determined as 2.8 ×10⁻⁶ cm/s, the Papp B→A came to 28 ×10⁻⁶ cm/s and the efflux ratio came to 10. Moreover, in the data set “Kinetic solubility”, the solubility was found to be 570 µM (≈ 220 µg/mL). Besides, the IC50 in data set [4] is 36 nM.
